According to patent US9676715B2, “Bis-indolic derivatives, a process for preparing the same and their uses as a drug” (UNIVERSITE JOSEPH FOURIER, priority 2011, dated 2017):
≈ marks a conversion by molar mass, not a printed value. Where two headings read alike, the source gives them in different places.

Columns and labels:
[1] = system: S. agalactiae (group B) ATCC 12400; test: MIC, microdilution method (9.1); format: cell-based, Streptococcus agalactiae
Summary of the method: (§1)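 Broth microdilution per CLSI M07-A8 in Mueller Hinton broth, final inoculum 5×10^5 CFU/ml. Indolic compounds tested as two-fold serial dilutions, 0.50-128 mg/L final. Plates incubated at 37° C. in ambient air; fastidious species received 10% sheep blood and 5% CO2.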

S. mitis CIP 103335 = test: MIC, microdilution method (9.1); format: cell-based, Streptococcus mitis
Summary of the method: as §1

[2] = system: S. epidermidis ATCC 12228; test: MIC, microdilution method (9.1); format: cell-based, Staphylococcus epidermidis
Summary of the method: as §1

[3] = system: S. epidermidis CIP 103627; test: MIC, microdilution method (9.1); format: cell-based, Staphylococcus epidermidis
Summary of the method: as §1

S. epidermidis CIP 81.55 = test: MIC, microdilution method (9.1); format: cell-based, Staphylococcus epidermidis
Summary of the method: as §1

S. pneumoniae ATCC 6303 = test: MIC, microdilution method (9.1); format: cell-based, Streptococcus pneumoniae; conditions: 5% CO2, 18 h
Summary of the method: as §1

S. aureus ATCC 9144 = test: MIC, microdilution method (9.1); format: cell-based, Staphylococcus aureus
Summary of the method: as §1

[4] = system: S. aureus ATCC 33592 (MRSA); test: MIC, microdilution method (9.1); format: cell-based, Staphylococcus aureus; conditions: read after 18 h
Summary of the method: as §1

S. aureus ATCC 29213 = test: MIC, microdilution method (9.1); format: cell-based, Staphylococcus aureus
Summary of the method: as §1

S. aureus CIP 103428 = test: MIC, microdilution method (9.1); format: cell-based, Staphylococcus aureus
Summary of the method: as §1

S. aureus ATCC 6538 = test: MIC, microdilution method (9.1); format: cell-based, Staphylococcus aureus
Summary of the method: as §1

S. aureus CIP 65.6 = test: MIC, microdilution method (9.1); format: cell-based, Staphylococcus aureus
Summary of the method: as §1

S. aureus SA-1199B = test: MIC, microdilution method (9.1); format: cell-based, Staphylococcus aureus
Summary of the method: as §1

[5] = system: S. aureus CIP 65.25 (MRSA); test: MIC, microdilution method (9.1); format: cell-based, Staphylococcus aureus; conditions: read after 18 h
Summary of the method: as §1

S. aureus ATCC 25923 = test: MIC, microdilution method (9.1); format: cell-based, Staphylococcus aureus
Summary of the method: as §1

[6] = system: S. aureus ATCC 106414 (VISA); test: MIC, microdilution method (9.1); format: cell-based, Staphylococcus aureus; conditions: read after 18 h
Summary of the method: as §1

E. faecalis ATCC 29212 = test: MIC, microdilution method (9.1); format: cell-based, Enterococcus faecalis
Summary of the method: as §1

[7] = system: Klebsiella pneumoniae API ATCC 35657; test: MIC, microdilution method (9.1); format: cell-based
Summary of the method: as §1

[8] = system: Escherichia coli ATCC 25922; test: MIC, microdilution method (9.1); format: cell-based; conditions: ATCC25922, 18 h
Summary of the method: as §1

[9] = system: Listeria innocua CIP 80.11; test: MIC, microdilution method (9.1); format: cell-based
Summary of the method: as §1

[10] = system: Serratia marcescens CIP 103551; test: MIC, microdilution method (9.1); format: cell-based; conditions: CIP103551, 18 h
Summary of the method: as §1

S. pneumoniae ATCC 49619 = test: MIC, microdilution method (9.1); format: cell-based; conditions: Streptococcus pneumoniae, ATCC49619, 10% sheep blood, 5% CO2, 18 h
Summary of the method: as §1

[11] = system: Enterobacter cloacae ATCC13047; test: MIC, microdilution method (9.1); format: cell-based; conditions: 18 h
Summary of the method: as §1

[12] = system: Pseudomonas aeruginosa CIP 5933; test: MIC, microdilution method (9.1); format: cell-based
Summary of the method: as §1

[13] = system: Haemophilus influenzae ATCC 49766; test: MIC, microdilution method (9.1); format: cell-based; conditions: Haemophilus influenzae, ATCC49766, 18 h
Summary of the method: as §1

[14] = system: Bacillus subtilis CIP 5262; test: MIC, microdilution method (9.1); format: cell-based
Summary of the method: as §1

[15] = system: Acinetobacter baumanii ATCC 19606; test: MIC, microdilution method (9.1); format: cell-based
Summary of the method: as §1

[16] = system: 29 bacterial strains belonging to 17 different species; test: MIC determination, overall statements on the bacterial panel; format: cell-based; conditions: summary of MIC results
Experimental: The microdilution method recommended by the Clinical and Laboratory Standard Institute [M07-A8, Vol. 29, No. 2] was used. The activity of indolic compounds was tested against 29 bacterial strains belonging to 17 different species and 12 different genera (Staphylococcus, Streptococcus, Enterococcus, Listeria, Bacillus, Haemophilus, Escherichia, Klebsiella, Enterobacter, Serratia, Pseudomonas, and Acinetobacter). Bacterial inocula were prepared in Mueller Hinton broth (MH2, bioMérieux, Marcy L'Etoile, France), supplemented with 10% sheep blood for fastidious species (i.e., Streptococcus pneumoniae and Haemophilus influenzae). They were dispensed in 96 well microtiter plates (5×10^5 CFU/ml of final inoculum). Indolic compounds were added to the wells as to obtain two-fold serial concentrations (0.50-128 mg/L of final concentrations). Plates were incubated at 37° C. in ambient air, or at 37° C. in 5% CO2 enriched atmosphere for fastidious species. […] Drug-free cultures served as growth controls. Cultures receiving gentamicin, ciprofloxacin or cefotaxime served as positive controls.

[17] = system: S. pyogenes (group A) CIP 104226; test: MIC, microdilution method (9.1); format: cell-based, Streptococcus pyogenes
Summary of the method: as §1

E. faecium CIP 54.32 = test: MIC, microdilution method (9.1); format: cell-based, Enterococcus faecium
Summary of the method: as §1

[18] = Staphylococcus aureus, read-out: MIC

With `CC(C)(C)OC(=O)NCC(NC(=O)C(F)(F)F)c1c[nH]c2ccc(Br)cc12` (stereo not shown) [Compound 9, tert-Butyl (2-(5-bromo-1H-indol-3-yl)-2-(2,2,2-trifluoroacetamido)ethyl)carbamate] the MIC ([1]; Streptococcus agalactiae, ATCC12400, 18 h, read-out: MIC) was over 128 µg/mL, the MIC (S. mitis CIP 103335; Streptococcus mitis, CIP103335, 18 h, read-out: MIC) was over 128 µg/mL and the MIC ([2]; Staphylococcus epidermidis, ATCC12228, read after 18 h, read-out: MIC) was over 128 µg/mL. For the same molecule, the MIC ([3]; Staphylococcus epidermidis, CIP103627, read after 18 h, read-out: MIC) was over 128 µg/mL, the MIC (S. epidermidis CIP 81.55; Staphylococcus epidermidis, CIP81, read after 18 h, read-out: MIC) was over 128 µg/mL and the MIC (S. pneumoniae ATCC 6303; Streptococcus pneumoniae, ATCC6303, 10% sheep blood, read-out: MIC) was over 128 µg/mL. The MIC (S. aureus ATCC 9144; Staphylococcus aureus, ATCC9144, read after 18 h, read-out: MIC) was over 128 µg/mL, the MIC [4, 18] was 128 µg/mL (≈ 284 µM) and the MIC (S. aureus ATCC 29213; Staphylococcus aureus, ATCC29213, read after 18 h, read-out: MIC) was 64 µg/mL (≈ 142 µM). For the same molecule, the MIC (S. aureus CIP 103428; Staphylococcus aureus, CIP103428, read after 18 h, read-out: MIC) was 128 µg/mL (≈ 284 µM), the MIC (S. aureus ATCC 6538; Staphylococcus aureus, ATCC6538, read after 18 h, read-out: MIC) was 128 µg/mL (≈ 284 µM) and the MIC (S. aureus CIP 65.6; Staphylococcus aureus, CIP65, read after 18 h, read-out: MIC) was 128 µg/mL (≈ 284 µM). For the same molecule, the MIC (S. aureus SA-1199B; Staphylococcus aureus, SA1199B, 18 h) was 128 µg/mL (≈ 284 µM), the MIC [5, 18] was 128 µg/mL (≈ 284 µM) and the MIC (S. aureus ATCC 25923; Staphylococcus aureus, ATCC25923, read after 18 h, read-out: MIC) was over 128 µg/mL. For the same molecule, the MIC [6, 18] was 128 µg/mL (≈ 284 µM), the MIC (E. faecalis ATCC 29212; Enterococcus faecalis, ATCC29212, 18 h, read-out: MIC) was over 128 µg/mL and the MIC ([7]; ATCC35657, 18 h, read-out: MIC) was over 128 µg/mL. The MIC [8] was over 128 µg/mL, the MIC ([9]; CIP80, 18 h, read-out: MIC) was over 128 µg/mL and the MIC [10] was over 128 µg/mL. For the same molecule, the MIC (S. pneumoniae ATCC 49619) was over 128 µg/mL, the MIC [11] was over 128 µg/mL and the MIC ([12]; CIP5933, 18 h, read-out: MIC) was over 128 µg/mL. The MIC [13] was over 128 µg/mL, the MIC ([14]; CIP5262, 18 h, read-out: MIC) was 128 µg/mL (≈ 284 µM) and the MIC ([15]; Acinetobacter baumannii, ATCC19606, 18 h, read-out: MIC) was over 128 µg/mL. For the same molecule, the “intrinsic antibacterial activity (in words)” value [16] was “lack of intrinsic antibacterial activity”, the MIC ([17]; Streptococcus pyogenes, CIP104226, 18 h, read-out: MIC) was over 128 µg/mL and the MIC (E. faecium CIP 54.32; Enterococcus faecium, CIP54, 18 h, read-out: MIC) was over 128 µg/mL.

“tert-Butyl (2-(p-bromo)benzamido-2-(5-bromo-1H-indol-3-yl)ethyl)carbamate [Compound 8a]” showed an MIC ([1]; 18 h) of 64 µg/mL, an MIC (S. mitis CIP 103335; 18 h) of over 128 µg/mL and an MIC ([2]; read after 18 h) of over 32 µg/mL. It also gave an MIC ([3]; read after 18 h) of over 32 µg/mL, an MIC (S. epidermidis CIP 81.55; read after 18 h) of over 32 µg/mL and an MIC (S. pneumoniae ATCC 6303; 10% sheep blood) of 128 µg/mL. For the same molecule, the MIC (S. aureus ATCC 9144; read after 18 h) was over 32 µg/mL, the MIC [4] was over 32 µg/mL and the MIC (S. aureus ATCC 29213; read after 18 h) was over 32 µg/mL. The MIC (S. aureus CIP 103428; read after 18 h) was over 32 µg/mL, the MIC (S. aureus ATCC 6538; read after 18 h) was over 32 µg/mL and the MIC (S. aureus CIP 65.6; read after 18 h) was over 32 µg/mL. For the same molecule, the MIC (S. aureus SA-1199B; S. aureus SA-1199B, read after 18 h) was over 32 µg/mL, the MIC [5] was over 32 µg/mL and the MIC (S. aureus ATCC 25923; read after 18 h) was >128(>32) mg/L. The MIC [6] was over 32 µg/mL, the MIC (E. faecalis ATCC 29212; 18 h) was over 128 µg/mL and the MIC ([7]; 18 h) was 64 µg/mL. For the same molecule, the MIC ([9]; 18 h) was over 128 µg/mL, the MIC ([12]; 18 h) was >128(>32) mg/L and the MIC ([14]; 18 h) was over 128 µg/mL. For the same molecule, the MIC ([15]; 18 h) was >128(>32) mg/L, the “intrinsic antibacterial activity (in words)” value [16] was “lack of intrinsic antibacterial activity” and the MIC ([17]; 18 h) was over 128 µg/mL. For the same molecule, the MIC (E. faecium CIP 54.32; 18 h) was over 128 µg/mL.
